# Test system: Streptococcus pyogenes
# Experiment: Anti-microbial screen
# Format: cell-based
# Settings: growth at 4 hrs, OD 570 nm, Todd Hewitt Broth
# Description: Streptococcus pyogenes (ATCC# 97-03 14289) were grown in Todd Hewitt Broth (THB) (Difco Laboratories #0492-17-6) overnight until they reached an optical density of (OD═0.636@ 570 nm) by reading 0.1 ml in a 96 well microtiter plate in a Molecular Devices Thermomax. This preparation was kept frozen as stocks in 30% v/v glycerol in 1.5 ml aliquots at −70° C. until use. Prior to experiments 1.5 ml aliquots were thawed and diluted into 50 ml THB. 200 ul of this dilution was added to 92 wells of microtiter plate. To three wells THB (200 ul) was added to serve as a blank and a sterility control. Test compounds in DMSO and appropriate concentrations of DMSO were added to Growth/Solvent Controls at 0 time. Plates were read at 0 time at 570 nm in the Molecular Devices plate reader to obtain compounds correction factors for insoluble or colored compounds. Plates were read again at 4 hrs.
# Percent inhibition was calculated with the following formulae:
# Color correct=(O.D. 0 hr−Blank 0 hr)−(Solvent Control 0 hr−Blank 0 hr)
# % Inhibition=100−O.D. test compound 4 hr−Blank 4 hr−color correct
# O.D. growth/solvent control 4 hr−Blank 4 hr
row,SMILES,% Inhibition
1,CN(C)CCN(CC(N)=O)C(=O)CCN1C(=O)c2ccccc2C(C(=O)NCCN2CCCC2)C1c1ccc(O)c(O)c1 (stereo not drawn) [Compound 2520-1],9%
2,CN(C)CCN(CC(N)=O)C(=O)CCN1C(=O)c2ccccc2C(C(=O)NC2CCC(C(C)(C)C)CC2)C1c1ccc(O)c(O)c1 (stereo not drawn) [Compound 2520-2],94%
3,CCCCN(CCCC)CCN(CC(N)=O)C(=O)CCN1C(=O)c2ccccc2C(C(=O)NCCN(CC)c2cccc(C)c2)C1c1ccc(O)c(O)c1 (stereo not drawn) [Compound 2520-721],86%
4,CCCCOCCCNC(=O)C1c2ccccc2C(=O)N(CCC(=O)N(CCN(CCCC)CCCC)CC(N)=O)C1c1ccc(O)c(O)c1 (stereo not drawn) [Compound 2520-722],58%
5,CCN1CCCC1CN(CC(N)=O)C(=O)CCN1C(=O)c2ccccc2C(C(=O)NCCCN2CCCCC2C)C1c1cccc([N+](=O)[O-])c1 (stereo not drawn) [Compound 2520-2341],104%
6,CCN(CCNC(=O)C1c2ccccc2C(=O)N(CCC(=O)N(CC(N)=O)Cc2ccccc2)C1c1ccc(N(C)C)cc1)c1cccc(C)c1 (stereo not drawn) [Compound 2520-3137],66%
7,CCCCOCCCNC(=O)C1c2ccccc2C(=O)N(CCC(=O)N(CC(N)=O)Cc2ccccc2)C1c1ccc(N(C)C)cc1 (stereo not drawn) [Compound 2520-3138],19%
8,CCOC(=O)CC(C)NC(=O)C1c2ccccc2C(=O)N(CCC(=O)N(CCN(C)C)CC(N)=O)C1c1cccc(Oc2ccccc2)c1 (stereo not drawn) [Compound 2520-4745],99%
9,C=CCNC(=O)C1c2ccccc2C(=O)N(CCC(=O)N(CCN(C)C)CC(N)=O)C1c1cccc(Oc2ccccc2)c1 (stereo not drawn) [Compound 2520-4746],100%
10,CCN(CCNC(=O)C1c2ccccc2C(=O)N(CCC(=O)N(CC(N)=O)NC(=O)OC)C1c1cc(C(F)(F)F)cc(C(F)(F)F)c1)c1cccc(C)c1 (stereo not drawn) [Compound 2520-5545],86%
11,CCCCOCCCNC(=O)C1c2ccccc2C(=O)N(CCC(=O)N(CC(N)=O)NC(=O)OC)C1c1cc(C(F)(F)F)cc(C(F)(F)F)c1 (stereo not drawn) [Compound 2520-5548],43%
12,CCN1CCCC1CN(CC(N)=O)C(=O)CCN1C(=O)c2ccccc2C(C(=O)N2CCN(Cc3ccccc3)CC2)C1c1ccc(-c2ccccc2)cc1 (stereo not drawn) [Compound 2520-6332],98%
13,CCN1CCCC1CN(CC(N)=O)C(=O)CCN1C(=O)c2ccccc2C(C(=O)N2CCN(C)CC2)C1c1ccc(-c2ccccc2)cc1 (stereo not drawn) [Compound 2520-6333],78%
14,CCN1CCCC1CN(CC(N)=O)C(=O)CCN1C(=O)c2ccccc2C(C(=O)NCCCN2CCCCC2C)C1c1ccc(N(C)C)cc1 (stereo not drawn) [Compound 2520-7125],100%
15,CCOC(=O)CCNC(=O)C1c2ccccc2C(=O)N(CCC(=O)N(CC(N)=O)CC2CCCN2CC)C1c1ccc(N(C)C)cc1 (stereo not drawn) [Compound 2520-7126],26%
16,CCN(CCNC(=O)C1c2ccccc2C(=O)N(CCC(=O)N(CC(N)=O)CC2CCCN2CC)C1c1ccc(SC)cc1)c1cccc(C)c1 (stereo not drawn) [Compound 2520-7921],100%
17,CCCCOCCCNC(=O)C1c2ccccc2C(=O)N(CCC(=O)N(CC(N)=O)CC2CCCN2CC)C1c1ccc(SC)cc1 (stereo not drawn) [Compound 2520-7922],87%

row,SMILES,% Inhibition
1,CN(C)CCN(CC(N)=O)C(=O)c1ccc(CN2C(=O)c3ccccc3C(C(=O)NCCN3CCCC3)C2c2ccccc2)cc1 (stereo not drawn) [Compound 2530-1],44%
2,CN(C)CCN(CC(N)=O)C(=O)c1ccc(CN2C(=O)c3ccccc3C(C(=O)NCc3cccnc3)C2c2ccccc2)cc1 (stereo not drawn) [Compound 2530-2],51%
3,NC(=O)CN(CCN1CCCCC1)C(=O)c1ccc(CN2C(=O)c3ccccc3C(C(=O)NCCN3CCCC3)C2c2ccccc2)cc1 (stereo not drawn) [Compound 2530-865],20%
4,NC(=O)CN(CCN1CCCCC1)C(=O)c1ccc(CN2C(=O)c3ccccc3C(C(=O)NCc3cccnc3)C2c2ccccc2)cc1 (stereo not drawn) [Compound 2530-866],11%
5,CCCN(CC(N)=O)C(=O)C1CCC(CN2C(=O)c3ccccc3C(C(=O)NCCN3CCCC3)C2c2cccc(C)n2)CC1 (stereo not drawn) [Compound 2530-1537],4%
6,CCCN(CC(N)=O)C(=O)C1CCC(CN2C(=O)c3ccccc3C(C(=O)NCc3cccnc3)C2c2cccc(C)n2)CC1 (stereo not drawn) [Compound 2530-1538],15%
7,NC(=O)CN(CCN1CCOCC1)C(=O)c1ccc(CN2C(=O)c3ccccc3C3C(=O)N4CCN(Cc5ccccc5)c5c(-c6ccccc6)ccc(c54)C32)cc1 (stereo not drawn) [Compound 2530-2501],109%
8,CCN(CC)CCCC(C)NC(=O)C1c2ccccc2C(=O)N(Cc2ccc(C(=O)N(CC(N)=O)CC3CCCN3CC)cc2)C1c1ccc(O)cc1 (stereo not drawn) [Compound 2530-3185],4%
9,CCN1CCCC1CN(CC(N)=O)C(=O)c1ccc(CN2C(=O)c3ccccc3C(C(=O)NC3CCC(C(C)(C)C)CC3)C2c2ccc(O)cc2)cc1 (stereo not drawn) [Compound 2530-3186],101%
10,CCc1ccc(C2C(C(=O)NCCN(C)C)c3ccccc3C(=O)N2Cc2ccc(C(=O)N(CCOC)CC(N)=O)cc2)cc1 (stereo not drawn) [Compound 2530-4162],30%
11,CSc1ccc2c3c1C(Br)CCN3C(=O)C1c3ccccc3C(=O)N(Cc3ccc(C(=O)N(CCc4ccc(Cl)cc4Cl)CC(N)=O)cc3)C21 (stereo not drawn) [Compound 2530-4401],45%
12,CSc1ccc(C2C(C(=O)NCCN(C)C)c3ccccc3C(=O)N2Cc2ccc(C(=O)N(CCc3ccc(Cl)cc3Cl)CC(N)=O)cc2)cc1 (stereo not drawn) [Compound 2530-4402],96%
13,CC(C)(C)C1CCC(NC(=O)C2c3ccccc3C(=O)N(CC3CCC(C(=O)N(CCCn4ccnc4)CC(N)=O)CC3)C2c2ccccc2)CC1 (stereo not drawn) [Compound 2530-4818],61%
14,NC(=O)CN(CCCn1ccnc1)C(=O)C1CCC(CN2C(=O)c3ccccc3C3C(=O)N4CCC(N5CCCC5)c5cccc(c54)C32)CC1 (stereo not drawn) [Compound 2530-4819],20%
15,C=CCN(CC(N)=O)C(=O)c1ccc(CN2C(=O)c3ccccc3C3C(=O)N4CCOc5c(O)ccc(c54)C32)cc1 (stereo not drawn) [Compound 2530-6447],8%
16,C=CCN(CC(N)=O)C(=O)c1ccc(CN2C(=O)c3ccccc3C(C(=O)NCCCCCCCCCCCC)C2c2ccc(O)cc2)cc1 (stereo not drawn) [Compound 2530-6448],53%

# Reference: patent US6417195B1, “Isoquinoline derivatives and isoquinoline combinatorial libraries” (Lion Bioscience AG, priority 1999, dated 2002)
